According to patent US20240269298A1, “PHOSPHONYL DERIVATIVE, AND COMPOSITION AND PHARMACEUTICAL APPLICATION THEREOF” (XIZANG HAISCO PHARMACEUTICAL CO., LTD., priority 2021, published 2024):
Read-outs that look alike come from different tables or passages of the source.

Experiments:
[1] = tested on: NCI-H1975 (EGFR-L858R-T790M) cells; assay: Inhibitory activity on proliferation of NCI-H1975 (EGFR-L858R-T790M) cells (CTG, 72 h); format: cell-based; conditions: Homo sapiens
Procedure, shortened: (§1)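 Cells plated at 1000/well (NCI-H1975, RPMI1640+10% FBS) or 3000/well (A431, DMEM+10% FBS), dosed next day with compounds (0.1% DMSO final) for 72 h at 37 °C, 5% CO2. Viability by CTG luminescence, normalised to vehicle control; IC50 from nonlinear-regression dose-survival curves.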

A431 (EGFR-WT) cells = assay: Inhibitory activity on proliferation of A431 (EGFR-WT) cells (CTG, 72 h); format: cell-based; conditions: Homo sapiens, A-431
Procedure, shortened: as §1

[2] = tested on: NCI-H1975 EGFR-L858R-T790M-C797S cells; assay: Inhibitory activity on proliferation of NCI-H1975 EGFR-L858R-T790M-C797S cells (CellTiter-Glo, 72 h); format: cell-based; conditions: Homo sapiens
Protocol: NCI-H1975 EGFR-L858R-T790M-C797S cells were cultured in an incubator at 37° C. with 5% CO2, and the culture medium was RPMI1640+10% FBS+100 μg/mL hygromycin. The cells in the logarithmic phase were collected, and the cell suspension was adjusted to an appropriate concentration with a hygromycin-free culture medium, and then plated on a 96-well plate at a density of 1500 cells/well and a volume of 90 μL. 10 μL of the compounds at different concentrations were added, and a vehicle control group (cells plus DMSO) was provided, wherein the concentration of DMSO was 0.1%. The cell culture plate was cultured in an incubator at 37° C. with 5% CO2 for 72 hours. After the incubation was completed, according to operation instructions for a CellTiter-Glo kit (Promega, G7572), 50 μL of CTG solution, which was already pre-melted and equilibrated to room temperature, was added to each well, and the mixtures were uniformly mixed for 2 min using a microplate shaker. The plate was placed at room temperature for 10 min, and then […] signal values were measured using a microplate reader (Envision 2104). […] was processed based on formula (2), and using the GraphPad Prism 5.0 software and nonlinear regression model, S-shaped dose-survival curves were plotted, and IC50 values were calculated. wherein Vsample was the readout of the drug-treated group, and Vvehicle control was the readout of the control group.

[3] = Pharmacokinetic test in mice; format: in vivo; conditions: male, ICR, mouse, po, administration i.g. (10 mg/kg), plasma
Procedure, shortened: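 Male ICR mice (20-25 g), fasted 12-14 h before dosing and fed 4 h after, received a single intravenous or intragastric dose. Orbital plasma sampled from 0 to 24 h (5 min-24 h points); LC-MS/MS quantitation for PK parameters and bioavailability.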

[4] = target: T1, EGFR protein in NCI-H1975 EGFR-L858R-T790M-C797S cells (Homo sapiens, UniProt P00533, C797S/L858R/T790M); assay: Degradation activity on EGFR protein in NCI-H1975 EGFR-L858R-T790M-C797S cells, Method I (western blot, 72 h); format: cell-based; conditions: 72 h incubation, EGFR protein relative to DMSO control
T1 construct: expressed in transfected cells; host or cells: NCI-H1975 EGFR-L858R-T790M-C797S (kept under hygromycin selection)
T1 sequence (P00533 25-1210 T790M/C797S/L858R): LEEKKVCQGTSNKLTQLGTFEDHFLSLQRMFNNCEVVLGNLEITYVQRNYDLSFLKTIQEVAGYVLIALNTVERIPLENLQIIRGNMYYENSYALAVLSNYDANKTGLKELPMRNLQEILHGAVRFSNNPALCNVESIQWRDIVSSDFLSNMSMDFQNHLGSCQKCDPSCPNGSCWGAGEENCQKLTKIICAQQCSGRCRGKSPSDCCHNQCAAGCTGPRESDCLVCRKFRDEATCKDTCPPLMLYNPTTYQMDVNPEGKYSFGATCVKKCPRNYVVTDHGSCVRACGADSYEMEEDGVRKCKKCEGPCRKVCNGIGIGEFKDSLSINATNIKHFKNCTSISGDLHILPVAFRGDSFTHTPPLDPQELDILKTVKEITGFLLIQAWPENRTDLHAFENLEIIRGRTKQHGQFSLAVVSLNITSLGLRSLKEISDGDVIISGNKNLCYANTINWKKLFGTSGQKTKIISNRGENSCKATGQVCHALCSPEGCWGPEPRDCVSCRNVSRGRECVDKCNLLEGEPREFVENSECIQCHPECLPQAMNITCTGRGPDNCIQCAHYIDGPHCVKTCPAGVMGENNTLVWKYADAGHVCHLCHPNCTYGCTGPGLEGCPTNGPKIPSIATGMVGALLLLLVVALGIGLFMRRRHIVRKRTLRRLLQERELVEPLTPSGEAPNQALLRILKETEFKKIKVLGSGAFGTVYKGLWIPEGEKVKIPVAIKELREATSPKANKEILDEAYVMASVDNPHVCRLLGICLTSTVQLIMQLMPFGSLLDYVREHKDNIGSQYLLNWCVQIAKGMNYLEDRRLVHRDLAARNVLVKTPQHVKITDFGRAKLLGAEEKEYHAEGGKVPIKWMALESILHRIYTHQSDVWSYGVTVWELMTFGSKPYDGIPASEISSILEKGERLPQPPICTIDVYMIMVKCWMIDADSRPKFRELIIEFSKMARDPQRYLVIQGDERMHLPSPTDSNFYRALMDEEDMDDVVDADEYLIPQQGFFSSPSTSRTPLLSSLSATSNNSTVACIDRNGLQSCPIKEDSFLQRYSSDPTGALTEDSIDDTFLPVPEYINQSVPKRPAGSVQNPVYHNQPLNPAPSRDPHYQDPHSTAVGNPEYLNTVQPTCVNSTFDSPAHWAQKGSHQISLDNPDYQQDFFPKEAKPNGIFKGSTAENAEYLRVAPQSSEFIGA
Protocol: Protein sample preparation: NCI-H1975 EGFR-L858R-T790M-C797S cells were cultured in an incubator at 37° C. with 5% CO2, and the culture medium was RPMI1640+10% FBS+100 μg/mL hygromycin. The cells in the logarithmic phase were collected, and the cell suspension was adjusted to an appropriate concentration with a hygromycin-free culture medium, plated on a 6-well plate at a density of 200000 cells/well and a volume of 2 mL, and cultured overnight in an incubator at 37° C. with 5% CO2. The next day, the compounds at different concentrations were added. DMSO control wells were provided, wherein the concentration of DMSO in all wells was 0.1%. The 6-well plate was cultured in an incubator at 37° C. with 5% CO2 for 72 h, and then 30 μL of RIPA lysates (Beyotime, Cat. P0013B) containing protease inhibitors (Beyotime, Cat. P0013B) were added. The mixtures were lysed on ice for 30 min. Centrifugation was carried out at 13000 rpm/min at 4° C. for 20 min to collect protein supernatant samples, and protein quantification was performed by the BCA method. Samples for western blot detection were prepared.
Western blot detection: 20 μg of protein samples were added to each well, subjected to polyacrylamide gel electrophoresis and transferred to a membrane, and then diluted anti-EGFR (CST, Cat. 4267S) and […] (Kangchen, Cat. KC-5G4) antibodies were added and incubated overnight at 4° C. After washing the membrane, diluted goat anti-rabbit (Licor, Cat. 926-32211) and goat anti-mouse (Licor, Cat. 926-68070) antibodies were added and incubated in the dark for 45 min. Scanning and detection at wavelengths of 700 nm and 800 nm were performed with a far-infrared imaging system (Odyssey).
According to formula (3), the expression level of EGFR protein in the cells relative to the DMSO control group was calculated after incubation with different concentrations of compounds. wherein EGFRcompound was the fluorescence value of EGFR protein after incubation with compounds, and EGFRvehicle was the fluorescence value of EGFR protein in the DMSO control group. Using the Origin 9.2 software, the drug concentration DC50 values when the expression level of EGFR protein was 50% relative to the DMSO control group were calculated.

[5] = read-out: IC50 (value in brackets)

In the case of `COc1cc(N2CCC(N3CCN(CC4CCN(c5ccc6c(c5)C(=O)N(C5CCC(=O)NC5=O)C6=O)CC4)CC3)CC2)c(-c2cnn(C)c2)cc1Nc1ncc(Br)c(Nc2ccc(-c3ccccc3F)cc2P(C)(C)=O)n1` (stereo not shown) [Compound 54, 5-(4-((4-(1-(4-((5-bromo-4-((3-(dimethylphosphoryl)-2′-fluoro-[1,1′-biphenyl]-4-yl)amino)pyrimidin-2-yl)amino)-5-methoxy-2-(1-methyl-1H-pyrazol-4-yl)phenyl)piperidin-4-yl)piperazin-1-yl)methyl)piperidin-1-yl)-2-(2,6-dioxopiperidin-3-yl)isoindoline-1,3-dione], the IC50 ([1]; read-out: IC50 (class symbol)) is reported as < 100 nM, the IC50 [1, 5] is reported as 69 nM and the IC50 (A431 (EGFR-WT) cells) is reported as ≥ 10000 nM. For the same compound, the IC50 ([2]; read-out: IC50 (class symbol)) was < 200 nM, the IC50 ([2]; read-out: IC50 (value)) was 56 nM and the AUC(0-t) [3] was 29800 ng·h/mL. For the same compound, the DC50 [4] was < 100 nM.

With `COc1cc(N2CCN(CC3CCN(c4ccc5c(c4)C(=O)N(C4CCC(=O)NC4=O)C5=O)CC3)CC2)c(-c2cnn(C)c2)cc1Nc1ncc(Cl)c(Nc2ccc(-c3ccccc3F)cc2P(C)(C)=O)n1` (stereo not shown) [Compound 97, 5-(4-((4-(4-((5-chloro-4-((3-(dimethylphosphoryl)-2′-fluoro-[1,1′-biphenyl]-4-yl)amino)pyrimidin-2-yl)amino)-5-methoxy-2-(1-methyl-1H-pyrazol-4-yl)phenyl)piperazin-1-yl)methyl)piperidin-1-yl)-2-(2,6-dioxopiperidin-3-yl)isoindoline-1,3-dione] the IC50 ([1]; read-out: IC50 (class symbol)) was < 100 nM, the IC50 [1, 5] was 62 nM and the IC50 (A431 (EGFR-WT) cells) was ≥ 10000 nM. The IC50 ([2]; read-out: IC50 (class symbol)) was < 200 nM, the IC50 ([2]; read-out: IC50 (value)) was 79 nM and the AUC(0-t) [3] was 42300 ng·h/mL. The DC50 [4] was < 100 nM.

For `COc1cc(N2CCC(CN3CCC4(CC3)CCN(c3ccc5c(c3)C(=O)N(C3CCC(=O)NC3=O)C5=O)CC4)CC2)c(-c2cnn(C)c2)cc1Nc1ncc(Br)c(Nc2ccc(-c3ccccc3)cc2P(C)(C)=O)n1` (stereo not shown) [Compound 37, 5-(9-((1-(4-((5-bromo-4-((3-(dimethylphosphoryl)-[1,1′-biphenyl]-4-yl)amino)pyrimidin-2-yl)amino)-5-methoxy-2-(1-methyl-1H-pyrazol-4-yl)phenyl)piperidin-4-yl)methyl)-3,9-diazaspiro[5.5]undecan-3-yl)-2-(2,6-dioxopiperidin-3-yl)isoindoline-1,3-dione], the IC50 ([1]; read-out: IC50 (class symbol)) was < 100 nM, the IC50 [1, 5] was 38 nM and the IC50 (A431 (EGFR-WT) cells) was ≥ 10000 nM. For the same compound, the IC50 ([2]; read-out: IC50 (class symbol)) was < 200 nM, the IC50 ([2]; read-out: IC50 (value)) was 32 nM and the AUC(0-t) [3] was 21700 ng·h/mL. The DC50 [4] was < 100 nM.

In the case of `COc1cc(N2CCC(N3CCN(c4ccc5c(c4)C(=O)N(C4CCC(=O)NC4=O)C5=O)CC3)CC2)c(-c2cnn(C)c2)cc1Nc1ncc(Cl)c(Nc2ccc(-c3ccccc3)cc2P(C)(C)=O)n1` (stereo not shown) [Compound 92, 5-(4-(1-(4-((5-chloro-4-((3-(dimethylphosphoryl)-[1,1′-biphenyl]-4-yl)amino)pyrimidin-2-yl)amino)-5-methoxy-2-(1-methyl-1H-pyrazol-4-yl)phenyl)piperidin-4-yl)piperazin-1-yl)-2-(2,6-dioxopiperidin-3-yl)isoindoline-1,3-dione], the IC50 ([1]; read-out: IC50 (class symbol)) is reported as < 100 nM, the IC50 [1, 5] is reported as 71 nM and the IC50 (A431 (EGFR-WT) cells) is reported as ≥ 10000 nM. For the same compound, the IC50 ([2]; read-out: IC50 (class symbol)) was < 200 nM, the IC50 ([2]; read-out: IC50 (value)) was 65 nM and the AUC [3] was 63000 ng·h/mL. For the same compound, the half-life [3] was 6.88 h and the DC50 [4] was < 100 nM.

With `COc1cc(N2CCN(C3CCN(c4ccc5c(c4)C(=O)N(C4CCC(=O)NC4=O)C5=O)CC3)CC2)c(-c2cnn(C)c2)cc1Nc1ncc(Br)c(Nc2ccc(-c3ccccc3)cc2P(C)(C)=O)n1` (stereo not shown) [Compound 99, 5-(4-(4-(4-((5-bromo-4-((3-(dimethylphosphoryl)-[1,1′-biphenyl]-4-yl)amino)pyrimidin-2-yl)amino)-5-methoxy-2-(1-methyl-1H-pyrazol-4-yl)phenyl)piperazin-1-yl)piperidin-1-yl)-2-(2,6-dioxopiperidin-3-yl)isoindoline-1,3-dione] the IC50 ([1]; read-out: IC50 (class symbol)) was < 100 nM, the IC50 [1, 5] was 33 nM and the IC50 (A431 (EGFR-WT) cells) was ≥ 10000 nM. For the same compound, the IC50 ([2]; read-out: IC50 (class symbol)) was < 200 nM, the IC50 ([2]; read-out: IC50 (value)) was 57 nM and the AUC(0-t) [3] was 25000 ng·h/mL. For the same compound, the DC50 [4] was < 100 nM.

For `COc1cc(N2CCC(N3CCN(c4ccc5c(c4)C(=O)N(C4CCC(=O)NC4=O)C5=O)CC3)CC2)c(-c2cnn(C)c2)cc1Nc1ncc(Br)c(Nc2ccc(-c3ccccc3)cc2P(C)(C)=O)n1` (stereo not shown) [Compound 81, 5-(4-(1-(4-((5-bromo-4-((3-(dimethylphosphoryl)-[1,1′-biphenyl]-4-yl)amino)pyrimidin-2-yl)amino)-5-methoxy-2-(1-methyl-1H-pyrazol-4-yl)phenyl)piperidin-4-yl)piperazin-1-yl)-2-(2,6-dioxopiperidin-3-yl)isoindoline-1,3-dione], the IC50 ([1]; read-out: IC50 (class symbol)) was < 100 nM, the IC50 [1, 5] was 71 nM and the IC50 (A431 (EGFR-WT) cells) was ≥ 10000 nM. For the same compound, the IC50 ([2]; read-out: IC50 (class symbol)) was < 200 nM, the IC50 ([2]; read-out: IC50 (value)) was 49 nM and the AUC(0-t) [3] was 51000 ng·h/mL. For the same compound, the DC50 [4] was < 100 nM.

For `COc1cc(N2CCN(CC3CCN(c4ccc5c(c4)C(=O)N(C4CCC(=O)NC4=O)C5=O)CC3)CC2)c(-c2cnn(C)c2)cc1Nc1ncc(Br)c(Nc2ccc(-c3ccccc3F)cc2P(C)(C)=O)n1` (stereo not shown) [Compound 96, 5-(4-((4-(4-((5-bromo-4-((3-(dimethylphosphoryl)-2′-fluoro-[1,1′-biphenyl]-4-yl)amino)pyrimidin-2-yl)amino)-5-methoxy-2-(1-methyl-1H-pyrazol-4-yl)phenyl)piperazin-1-yl)methyl)piperidin-1-yl)-2-(2,6-dioxopiperidin-3-yl)isoindoline-1,3-dione], the IC50 ([1]; read-out: IC50 (class symbol)) was < 100 nM, the IC50 [1, 5] was 36 nM and the IC50 (A431 (EGFR-WT) cells) was ≥ 10000 nM. For the same compound, the IC50 ([2]; read-out: IC50 (class symbol)) was < 200 nM, the IC50 ([2]; read-out: IC50 (value)) was 60 nM and the AUC(0-t) [3] was 47000 ng·h/mL. For the same compound, the DC50 [4] was < 100 nM.

With `COc1cc(N2CCN(CC3CCN(c4ccc5c(c4)C(=O)N(C4CCC(=O)NC4=O)C5=O)C3)CC2)c(-c2cnn(C)c2)cc1Nc1ncc(Cl)c(Nc2ccc(-c3ccccc3)cc2P(C)(C)=O)n1` (stereo not shown) [Compound 68, 5-(3-((4-(4-((5-chloro-4-((3-(dimethylphosphoryl)-[1,1′-biphenyl]-4-yl)amino)pyrimidin-2-yl)amino)-5-methoxy-2-(1-methyl-1H-pyrazol-4-yl)phenyl)piperazin-1-yl)methyl)pyrrolidin-1-yl)-2-(2,6-dioxopiperidin-3-yl)isoindoline-1,3-dione] the IC50 ([1]; read-out: IC50 (class symbol)) was < 100 nM, the IC50 [1, 5] was 66 nM and the IC50 (A431 (EGFR-WT) cells) was ≥ 10000 nM. For the same compound, the IC50 ([2]; read-out: IC50 (class symbol)) was 200 to 500 nM, the IC50 ([2]; read-out: IC50 (value)) was 280 nM and the AUC [3] was 53200 ng·h/mL. The half-life [3] was 3.47 h and the DC50 [4] was < 100 nM.
